# What was measured:
# Format in all cases: functional
# Rattus norvegicus [1] = assay: Antihypertensive activity was measured for systolic pressure using spontaneous hypertensive rats (SHR) at 50 mg/kg after oral administration
# Rattus norvegicus [2] = assay: Antihypertensive activity was measured for systolic pressure using spontaneous hypertensive rats (SHR) at 25 mg/kg after oral administration
# Rattus norvegicus [3] = assay: Antihypertensive activity was measured for systolic pressure using spontaneous hypertensive rats (SHR) at 10 mg/kg after oral administration
# Rattus norvegicus [4] = assay: Antihypertensive activity was measured for systolic pressure using spontaneous hypertensive rats (SHR) at 50 mg/kg
compound,measurement,setting,value
Clc1ccccc1N1CCN(Sc2ccccc2)CC1,Change in systolic pressure,Rattus norvegicus [1],28 mmHg
Cc1ccccc1N1CCN(Sc2ccccc2)CC1,Change in systolic pressure,Rattus norvegicus [1],8 mmHg
Clc1ccc(N2CCN(Sc3ccccc3)CC2)cc1,Change in systolic pressure,Rattus norvegicus [1],44 mmHg
same,Change in systolic pressure,Rattus norvegicus [2],23.5 mmHg
Brc1ccc(OC2CCN(Sc3ccccc3)CC2)cc1,Change in systolic pressure,Rattus norvegicus [1],-15 mmHg
O=C(c1ccccc1)C1CCN(Sc2ccccc2)CC1,Change in systolic pressure,Rattus norvegicus [2],-14 mmHg
COc1ccccc1N1CCN(Sc2ccccc2)CC1,Change in systolic pressure,Rattus norvegicus [1],71 mmHg
same,Change in systolic pressure,Rattus norvegicus [2],27 mmHg
c1ccc(SN2CCC3(CC2)OC(c2ccccc2)c2ccccc23)cc1 (stereo not drawn),Change in systolic pressure,Rattus norvegicus [1],-66 mmHg
same,Change in systolic pressure,Rattus norvegicus [2],-44 mmHg
Cc1cccc(N2CCN(Sc3ccccc3)CC2)c1,Change in systolic pressure,Rattus norvegicus [3],16 mmHg
COc1cccc(N2CCN(Sc3ccccc3)CC2)c1,Change in systolic pressure,Rattus norvegicus [1],35 mmHg
COc1ccc(N2CCN(Sc3ccccc3)CC2)cc1,Change in systolic pressure,Rattus norvegicus [2],7 mmHg
[O-][S+](c1ccccc1)N1CCN(c2ccccn2)CC1 (stereo not drawn),Change in systolic pressure,Rattus norvegicus [3],36 mmHg
same,Change in systolic pressure,Rattus norvegicus [1],80 mmHg
same,Change in systolic pressure,Rattus norvegicus [2],59 mmHg
c1ccc(SN2CCN(c3ccccc3)CC2)cc1,Change in systolic pressure,Rattus norvegicus [3],16.5 mmHg
same,Change in systolic pressure,Rattus norvegicus [2],90 mmHg
FC(F)(F)c1cccc(N2CCN(Sc3ccccc3)CC2)c1,Change in systolic pressure,Rattus norvegicus [1],6 mmHg
c1ccc(SN2CCC(c3ccccc3)CC2)cc1,Change in systolic pressure,Rattus norvegicus [1],-9 mmHg
c1ccc(CN2CCN(Sc3ccccc3)CC2)cc1,Change in systolic pressure,Rattus norvegicus [1],17 mmHg
same,Change in systolic pressure,Rattus norvegicus [2],23 mmHg
c1ccc(SN2CCN(c3ccccn3)CC2)cc1,Change in systolic pressure,Rattus norvegicus [1],40 mmHg
same,Change in systolic pressure,Rattus norvegicus [2],65 mmHg
[O-][S+](c1ccccc1)N1CCN(c2ccccc2)CC1 (stereo not drawn),Change in systolic pressure,Rattus norvegicus [3],22 mmHg
same,Change in systolic pressure,Rattus norvegicus [1],83 mmHg
same,Change in systolic pressure,Rattus norvegicus [2],42 mmHg
Cc1ccc(C(=O)C2CCN(Sc3ccccc3)CC2)cc1,Change in systolic pressure,Rattus norvegicus [1],7 mmHg
c1ccc(COC2(c3ccccc3)CCN(Sc3ccccc3)CC2)cc1,Change in systolic pressure,Rattus norvegicus [4],2 mmHg
O=S(=O)(c1ccccc1)N1CCN(c2ccccn2)CC1,Change in systolic pressure,Rattus norvegicus [1],5 mmHg
O=S(=O)(c1ccccc1)N1CCN(c2ccccc2)CC1,Change in systolic pressure,Rattus norvegicus [1],26 mmHg
same,Change in systolic pressure,Rattus norvegicus [2],33 mmHg
N=C(N)NCCN1CCCCCCC1 [GUANETHIDINE],Change in systolic pressure,Rattus norvegicus [3],34 mmHg
